# Measurements reported in paper PMC4722047, “Purification and characterization of the enzymes involved in nicotinamide adenine dinucleotide degradation by Penicillium brevicompactum NRC 829” (3 Biotech, 2016).
# System: T1, NAD aminohydrolase (NAD deaminase)
# T1 construct: native enzyme purified from mycelial extract (acetone, DEAE-Sephadex A-25, Sephadex G-100); 91 kDa by SDS-PAGE
# Experiment: discontinuous ammonia release (Nessler's reagent)
# Assay type: biochemical, Penicillium brevicompactum
# Conditions: pH 6.0, 50 mM Tris-acetate
# Source text: discontinuous ammonia release (Nessler's reagent) on NAD aminohydrolase (NAD deaminase)
# [1] = 40 °C (conditions given for NAD)
Structure (SMILES),Km [1] [µM],"Km (40 °C, 30 min, 1.5-20 µM NAD+) [µM]"
Nc1ncnc2c1ncn2[C@@H]1O[C@H](COP(=O)(O)OP(=O)(O)O)[C@@H](O)[C@H]1O [ADP],6.25,
Nc1ncnc2c1ncn2[C@@H]1O[C@H](COP(=O)(O)O)[C@@H](O)[C@H]1O [AMP],8.33,
Nc1ncnc2c1ncn2[C@@H]1O[C@H](CO)[C@@H](O)[C@H]1O [Adenosine],4.5,
NC(=O)c1ccc[n+]([C@@H]2O[C@H](COP(=O)(O)OP(=O)(O)OC[C@H]3O[C@@H](n4cnc5c(N)ncnc54)[C@H](O)[C@@H]3O)[C@@H](O)[C@H]2O)c1 [NAD],,5.2
